{
  "source": "patent US11918550B2",
  "about": "“Sensitization of cancer cells to differentiation therapy with mitochondrial uncoupler niclosamide ethanolamine” (The Board of Trustees of the Leland Stanford Junior …, priority 2020, dated 2024)",
  "key": {"[1]": {"system": "orthotopic neuroblastoma xenograft (SK-N-BE(2) cells)", "experiment": "Metabolite levels in orthotopic xenograft tumors by LC/MS", "type": "in vivo, mice", "settings": "diet 2000 ppm NEN vs control", "procedure": "(§1) Metabolic analysis. For the metabolomics and isotope tracing analysis in vitro, cells were washed with cold PBS, lysed in 80% Ultra LC-MS acetonitrile on ice for 15 minutes, centrifuged at 20,000 g for 10 minutes at 4° C., and supernatant was subjected to mass spectrometry analysis. For the metabolomics analysis in vivo, 10-20 mg tissue were cut off on ice, rinsed if necessary to remove blood, and place in a 2 ml round-bottom cryovial. The tissues were homogenized by 3 times 10 s on/off bursts homogenization in 1 ml 80% methanol on dry ice. Transfer the homogenate to an Eppendorf tube and keep on liquid nitrogen while processing the remaining samples. Incubated all the samples in −80° C. for 30 minutes. After incubation, vortexed the samples for 5 seconds. Then centrifuged the samples at 20,000 g for 10 minutes at 4° C., and supernatant was subjected to mass spectrometry analysis. Resuspend the remaining cellular pellet in 100 ul protein lysis buffer and determine the protein concentration. Then calculate the total protein content per sample.\nLiquid chromatography was performed using an Agilent 1290 Infinity LC system (Agilent, Santa Clara, US) coupled to a Q-TOF 6545 mass spectrometer (Agilent, Santa Clara, US). A hydrophilic interaction chromatography method (HILIC) with a BEH amide column (100×2.1 mm i.d., 1.7 μm; Waters) was used for compound separation at 35° C. with a flow rate of 0.3 ml/minutes. The mobile phase A consisted of 25 mM ammonium acetate and 25 mM ammonium hydroxide in water and mobile phase B was acetonitrile. The gradient elution was 0-1 minute, 85% B; 1-12 minutes, 85% B→65% B; 12-12.2 minutes, 65% B→40% B; 12.2-15 minutes, 40% B. After the gradient, the column was re-equilibrated at 85% B for 5 minutes. The overall runtime was 20 minutes, and the injection volume was 5 μL. […]\n(§2) Mouse orthotopic neuroblastoma model. […] Tumor formation was monitored by non-invasive ultrasound measurements, and the animals euthanized when the tumor volume exceeded 1,000 mm^3."}, "[2]": {"experiment": "Plasma and tissue NEN levels under dietary NEN supplementation (LC/MS)", "type": "in vivo", "settings": "mice, diet that contains 2000 ppm NEN", "procedure": "as §1\nLiquid chromatography was performed using an Agilent 1290 Infinity LC system (Agilent, Santa Clara, US) coupled to a Q-TOF 6545 mass spectrometer (Agilent, Santa Clara, US). […]\nas §2"}, "SK-N-BE(2) cells": {"system": "SK-N-BE(2) cells", "experiment": "RNA-seq gene expression profiling with GSEA/DAVID analysis and qPCR validation", "type": "cell-based", "procedure": "RNA isolation, reverse transcription, and real-time PCR. The procedure was performed as described before. Briefly, total RNA was isolated from 60 mm tissue culture plates according to the TRIzol Reagent (Invitrogen, 15596026) protocol. 3 μg of total RNA was used in the reverse transcription reaction using the iScript cDNA synthesis kit (Bio-Rad). Quantitative PCR amplification was performed on the Prism 7900 Sequence Detection System (Applied Biosystems) using Taqman Gene Expression Assays (Applied Biosystems). Gene expression level were normalized to 18S rRNA.\nRNA Sequencing and bioinformatics analysis. […] The RNA-seq library was constructed and subjected to 150 bp paired-end sequencing on an Illumina sequencing platform (Novogene). RNA-seq analysis was performed using the kallisto and sleuth analytical pipeline. In brief, a transcript index was generated with reference to Ensembl version 67 for hg19. Paired-end mRNA-seq reads were pseudo-aligned using kallisto (v0.42.4) with respect to this transcript index using 100 bootstraps (-b 100) to estimate the variance of estimated transcript abundances. Transcript-level estimates were aggregated to transcripts per million (TPM) estimates for each gene, with gene names assigned from Ensembl using biomaRt. Differential gene expression analysis was performed using the sleuth R package across pairwise groups using Wald tests, with significant hits called with a sleuth q-value<0.05 and log 2(fold change) >0.693 or <−0.693. […] All the annotated transcripts (˜21,427 features in total) with expression values were uploaded to a locally-installed GSEA tool (version 4.1.0) and compared against the H: hallmark gene sets (50 gene sets).\nTo generate the favorable or unfavorable prognosis gene sets, Kaplan-Meier assay were employed for all the genes independently by using all 11 available neuroblastoma patient databases from R2.\nFor functional annotation, differentially expressed genes were submitted to online Database for Annotation, Visualization and Integrated Discovery (DAVID) website. The Analyses in DAVID were performed using the default parameters."}, "[3]": {"settings": "GSEA against gene sets from 11 neuroblastoma datasets of the R2 database"}, "[4]": {"settings": "SK-N-BE(2), NEN 16 h, DAVID analysis"}, "[5]": {"settings": "SK-N-BE(2), NEN 16 h, sleuth q-value<0.05, b>abs(ln(2))"}, "[6]": {"settings": "SK-N-BE(2), RNA-seq, validated by RT-qPCR"}},
  "data": [
    {"smiles": "O=C(Nc1ccc([N+](=O)[O-])cc1Cl)c1cc(Cl)ccc1O", "note": "[NEN, 5-chloro-N-(2-chloro-4-nitrophenyl)-2-hydroxybenzamide compound with 2-aminoethanol (1:1)]", "values": [
      {"measurement": "2-HG level in the tumor", "setting": "[1]", "result": "reduced"},
      {"measurement": "NAD+/NADH in the tumor", "setting": "[1]", "result": "increased"},
      {"measurement": "lactate level in the tumor", "setting": "[1]", "result": "slightly reduced"},
      {"measurement": "NEN accumulation in plasma", "setting": "[2]", "result": "1 to 3", "unit": "µM"},
      {"measurement": "enrichment of NEN-downregulated genes in patient prognosis gene sets", "setting": "SK-N-BE(2) cells; [3]", "result": "enriched in unfavorable prognosis gene sets"},
      {"measurement": "enrichment of NEN-upregulated genes in patient prognosis gene sets", "setting": "SK-N-BE(2) cells; [3]", "result": "enriched in all the favorable prognosis gene sets except one"},
      {"measurement": "genes expression in RAR signaling induced by RA", "setting": "SK-N-BE(2) cells; SK-N-BE(2), 1 μM NEN + 1 μM 13-cis-RA 16 hrs, validated by qRT-PCR", "result": "significantly enhanced"},
      {"measurement": "p53 pathway gene expression (GSEA)", "setting": "SK-N-BE(2) cells; SK-N-BE(2), NEN 16 h", "result": "significantly increased"},
      {"measurement": "pathways enriched in NEN-downregulated genes", "setting": "SK-N-BE(2) cells; [4]", "result": "DNA replication and cell cycle progression"},
      {"measurement": "pathways enriched in upregulated genes", "setting": "SK-N-BE(2) cells; [4]", "result": "neurogenesis, nervous system development and neuron differentiation"},
      {"measurement": "number of genes downregulated", "setting": "SK-N-BE(2) cells; [5]", "result": 224},
      {"measurement": "number of genes significantly upregulated", "setting": "SK-N-BE(2) cells; [5]", "result": 495},
      {"measurement": "cell division-related genes (GSEA hallmarks E2F-TARGETS, G2M_CHECKPOINT)", "setting": "SK-N-BE(2) cells; SK-N-BE(2), NEN 16 h vs CTRL", "result": "downregulation"},
      {"measurement": "expression of N-Myc targeted genes (GSEA MYC_TARGETS_V1, V2)", "setting": "SK-N-BE(2) cells; SK-N-BE(2), NEN 16 h vs CTRL", "result": "reduced"},
      {"measurement": "expression of canonical Wnt/β-catenin target genes", "setting": "SK-N-BE(2) cells; [6]", "result": "reduced"},
      {"measurement": "gene expression of inhibitor of Wnt/β-catenin pathway including TP53", "setting": "SK-N-BE(2) cells; [6]", "result": "upregulated"}
    ]}
  ]
}
